Source: patent US20180303807A1, “ANDROGEN RECEPTOR LIGANDS” (DUKE UNIVERSITY, priority 2015, published 2018)
Positions count from the first letter of the chain named.

What was measured:
Assay type in all cases: cell-based
AR [1] = test: Real-time PCR of AR target gene transcription in LNCaP-AR (AR overexpressing) cells, CRPC model; set-up: key to B5 = Relative antagonist activity (plus 0.1 nM R1881) of test compounds (20 μM) in AR overexpressing LNCaP cells (NKX3.1 AR target gene) / B7 = Relative antagonist activity (plus 0.1 nM R1881) of test compounds (20 μM) in AR overexpressing LNCaP cells (PSA AR target gene): a score of 1 indicates higher antagonist efficacy (highly desired activity) than benchmark compound enzalutamide; a score of 2 indicates equal antagonist efficacy to enzalutamide (desirable); a score of 3 indicates antagonist efficacy between enzalutamide and bicalutamide (less desirable activity); a score of 4 indicates antagonist efficacy equal to bicalutamide (liability); a score of 5 indicates antagonist efficacy worse than bicalutamide (liability); key to B4 = Relative agonist activity (no R1881) of test compounds (20 μM) in AR overexpressing LNCaP cells (NKX3.1 AR target gene) / B6 Relative agonist activity (no R1881) of test compounds (20 μM) in AR overexpressing LNCaP cells (PSA AR target gene): a score of 1 indicates less agonism (highly desired activity) than benchmark compound enzalutamide; a score of 2 indicates equal agonism to enzalutamide (desirable); a score of 3 indicates agonism between enzalutamide and bicalutamide (less desirable activity); a score of 4 indicates equal agonism to bicalutamide (liability); a score of 5 indicates higher agonism than bicalutamide (liability); conditions: for B4 = Relative agonist activity (no R1881) of test compounds (20 μM) in AR overexpressing LNCaP cells (NKX3.1 AR target gene): no R1881, NKX3.1 gene; for B4 = Relative agonist activity (no R1881) of test compounds (20 μM) in AR overexpressing LNCaP cells (NKX3.1 AR target gene) / B6 Relative agonist activity (no R1881) of test compounds (20 μM) in AR overexpressing LNCaP cells (PSA AR target gene) / B5 = Relative antagonist activity (plus 0.1 nM R1881) of test compounds (20 μM) in AR overexpressing LNCaP cells (NKX3.1 AR target gene) / B7 = Relative antagonist activity (plus 0.1 nM R1881) of test compounds (20 μM) in AR overexpressing LNCaP cells (PSA AR target gene): score vs enzalutamide/bicalutamide; for B5 = Relative antagonist activity (plus 0.1 nM R1881) of test compounds (20 μM) in AR overexpressing LNCaP cells (NKX3.1 AR target gene): plus 0.1 nM R1881, NKX3.1 gene; for B7 = Relative antagonist activity (plus 0.1 nM R1881) of test compounds (20 μM) in AR overexpressing LNCaP cells (PSA AR target gene): plus 0.1 nM R1881, PSA gene
Method: Real-Time PCR (CRPC model of AR overexpressing prostate cancer cells, Table 2, B4-B7). LNCaP-AR (AR overexpressing cells) cells were seeded in 12-well plates in RPMI 1640 (8% charcoal-stripped fetal calf serum (CFS)). […] AR target gene transcription (PSA, NKX3.1, FKBP5) was assessed by realtime PCR.
For B4-B7, scoring system is based on the relative AR target gene agonist/antagonist activity of test compounds when compared to benchmark compounds enzalutamide or bicalutamide. […] The lack of agonist activity is desirable for therapies intended to treat CRPC. For B4 and B6, a score of 1 indicates less agonism (highly desired activity) than benchmark compound enzalutamide, a score of 2 indicates equal agonism to enzalutamide (desirable), a score of 3 indicates agonism between enzalutamide and bicalutamide (less desirable activity), a score of 4 indicates equal agonism to bicalutamide (liability), and a score of 5 indicates higher agonism than bicalutamide (liability). For B5 and B7 a score of 1 indicates higher antagonist efficacy (highly desired activity) than benchmark compound enzalutamide, a score of 2 indicates equal antagonist efficacy to enzalutamide (desirable), a score of 3 indicates antagonist efficacy between enzalutamide and bicalutamide (less desirable activity), a score of 4 indicates antagonist efficacy equal to bicalutamide (liability), and a score of 5 indicates antagonist efficacy worse than bicalutamide (liability) For B9, Compounds that degrade AR (greater than 50% degradation at 10 μM) are indicated.

CV1 cells = test: Toxicity of test compound in the CV1 reporter gene assay (Renilla-Luc)
Method: Reporter Gene Assay (IC50 determination, Table 2, B1-B3). CV1 cells were seeded into 96-well cell culture plates and transfected with Lipofectin. For AR transcriptional assays, the DNA mixture consisted of pcDNA-AR, MMTV-Luc (androgen responsive reporter gene), and Renilla-Luc (for assessing transfection efficiency and toxicity). Following overnight incubation, cells were induced with hormone (0.1 nM R1881 (synthetic AR agonist) plus increasing concentrations of test compound) for 24 hrs. Cells were lysed and luciferase activity was quantified using Dual Luciferase Reagent (DLR). IC50 determination was assessed using GraphPad Prism software.

AR [2] = molecular target: T1, AR (Homo sapiens, UniProt P10275); test: Reporter gene assay, AR transcriptional (MMTV-Luc) in CV1 cells; conditions: pcDNA-AR + MMTV-Luc, 0.1 nM R1881 plus test compound, 24 hrs, read-out: B1 = AR transcriptional IC50 (μM) in CV1 cells
T1 construct: expressed in transfected cells; host or cells: CV1 cells
T1 sequence (P10275 1-920): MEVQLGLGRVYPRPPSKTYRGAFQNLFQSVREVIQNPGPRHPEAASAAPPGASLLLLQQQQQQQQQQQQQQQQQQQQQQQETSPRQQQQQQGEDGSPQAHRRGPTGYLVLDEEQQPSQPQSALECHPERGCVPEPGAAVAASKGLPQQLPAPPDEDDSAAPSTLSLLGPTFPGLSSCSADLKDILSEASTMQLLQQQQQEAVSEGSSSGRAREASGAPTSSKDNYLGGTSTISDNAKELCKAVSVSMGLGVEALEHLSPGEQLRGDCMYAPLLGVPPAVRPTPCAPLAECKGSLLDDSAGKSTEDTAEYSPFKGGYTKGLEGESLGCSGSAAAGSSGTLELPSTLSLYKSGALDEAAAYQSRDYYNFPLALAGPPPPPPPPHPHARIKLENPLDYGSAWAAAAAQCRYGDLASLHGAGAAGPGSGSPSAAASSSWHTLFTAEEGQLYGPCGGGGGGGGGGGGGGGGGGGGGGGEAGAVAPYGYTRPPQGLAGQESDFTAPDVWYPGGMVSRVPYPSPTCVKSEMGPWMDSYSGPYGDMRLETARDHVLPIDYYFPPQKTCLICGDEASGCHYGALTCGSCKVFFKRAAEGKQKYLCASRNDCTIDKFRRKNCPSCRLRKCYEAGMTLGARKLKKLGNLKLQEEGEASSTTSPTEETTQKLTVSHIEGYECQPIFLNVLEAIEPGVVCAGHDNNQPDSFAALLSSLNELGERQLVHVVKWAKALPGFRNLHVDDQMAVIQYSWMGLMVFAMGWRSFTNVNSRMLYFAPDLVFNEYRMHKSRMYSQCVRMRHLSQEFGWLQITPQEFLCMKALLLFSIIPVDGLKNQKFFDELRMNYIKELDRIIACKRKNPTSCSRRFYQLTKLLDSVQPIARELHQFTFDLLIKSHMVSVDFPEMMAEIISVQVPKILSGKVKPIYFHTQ
Summary of the method: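 CV1 cells transiently co-transfected with human AR, MMTV-Luc reporter and Renilla-Luc (transfection efficiency and toxicity read-out), then stimulated 24 h with 0.1 nM R1881 plus increasing test compound concentrations. Firefly and Renilla luciferase quantified by dual-luciferase assay; IC50 derived from concentration-response.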

AR [3] = molecular target: T2, AR (Homo sapiens, UniProt P10275, T878A); test: In Cell Western AR degradation assay in LNCaP cells; conditions: 18 hrs, greater than 50% degradation at 10 μM (method says 20 μM)
T2 construct: endogenous in cells; host or cells: LNCaP cells
T2 sequence (P10275 1-920 T878A): T1 sequence (P10275 1-920) with T878A
Summary of the method: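 After 48 h plating in RPMI with 8% CFS, LNCaP cells were exposed to 20 μM test compound for 18 h, fixed with 3.7% formaldehyde and permeabilized. AR was detected with anti-AR N20 antibody and an infrared secondary, imaged by LI-COR Odyssey and normalized to DRAQ5 DNA stain.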

Structure (SMILES): CC1(C)CC(=O)C2=C(C1)Nc1ccc3ccccc3c1C2c1ccncc1 (centres unmarked) [Compound A12]
- B4 = Relative agonist activity (no R1881) of test compounds (20 μM) in AR overexpressing LNCaP cells (NKX3.1 AR target gene) (AR [1]): 1
- B6 Relative agonist activity (no R1881) of test compounds (20 μM) in AR overexpressing LNCaP cells (PSA AR target gene) (AR [1]): 1
- B5 = Relative antagonist activity (plus 0.1 nM R1881) of test compounds (20 μM) in AR overexpressing LNCaP cells (NKX3.1 AR target gene) (AR [1]): 2
- B7 = Relative antagonist activity (plus 0.1 nM R1881) of test compounds (20 μM) in AR overexpressing LNCaP cells (PSA AR target gene) (AR [1]): 3
- B2 = % Toxicity of test compound (20 μM) (CV1 cells): 0%
- B3 = % Toxicity of test compound (60 μM) (CV1 cells): 94%
- IC50 (AR [2]): 8.6 µM

Structure (SMILES): CC1(C)CC(=O)C2=C(C1)Nc1ccc3ncccc3c1C2c1ccc([N+](=O)[O-])cc1 (centres unmarked) [Compound A2, 9,9-dimethyl-12-(4-nitrophenyl)-8,9,10,12-tetrahydrobenzo[b][4,7]phenanthrolin-11(7H)-one]
- B7 = Relative antagonist activity (plus 0.1 nM R1881) of test compounds (20 μM) in AR overexpressing LNCaP cells (PSA AR target gene) (AR [1]): 1
- B2 = % Toxicity of test compound (20 μM) (CV1 cells): 0%
- B3 = % Toxicity of test compound (60 μM) (CV1 cells): 51%
- IC50 (AR [2]): 0.2 µM

Structure (SMILES): N#Cc1ccc(C2C3=C(CCCC3=O)Nc3ccc4ccccc4c32)cc1 (centres unmarked) [Compound A22]
- B6 Relative agonist activity (no R1881) of test compounds (20 μM) in AR overexpressing LNCaP cells (PSA AR target gene) (AR [1]): 3
- B7 = Relative antagonist activity (plus 0.1 nM R1881) of test compounds (20 μM) in AR overexpressing LNCaP cells (PSA AR target gene) (AR [1]): 3
- B2 = % Toxicity of test compound (20 μM) (CV1 cells): 0%
- B3 = % Toxicity of test compound (60 μM) (CV1 cells): 66%
- IC50 (AR [2]): > 10 µM

Structure (SMILES): O=C1CCCC2=C1C(c1ccc([N+](=O)[O-])cc1)c1c(ccc3ncccc13)N2 (centres unmarked) [Compound A18]
- B6 Relative agonist activity (no R1881) of test compounds (20 μM) in AR overexpressing LNCaP cells (PSA AR target gene) (AR [1]): 1
- B7 = Relative antagonist activity (plus 0.1 nM R1881) of test compounds (20 μM) in AR overexpressing LNCaP cells (PSA AR target gene) (AR [1]): 2
- B2 = % Toxicity of test compound (20 μM) (CV1 cells): 0%
- B3 = % Toxicity of test compound (60 μM) (CV1 cells): 22%
- IC50 (AR [2]): > 10 µM

Structure (SMILES): Cn1c(=O)n(C)c2cc(C3C4=C(CC(C)(C)CC4=O)Nc4ccc5ccccc5c43)ccc21 (centres unmarked) [Compound A8]
- B4 = Relative agonist activity (no R1881) of test compounds (20 μM) in AR overexpressing LNCaP cells (NKX3.1 AR target gene) (AR [1]): 2
- B6 Relative agonist activity (no R1881) of test compounds (20 μM) in AR overexpressing LNCaP cells (PSA AR target gene) (AR [1]): 1
- B5 = Relative antagonist activity (plus 0.1 nM R1881) of test compounds (20 μM) in AR overexpressing LNCaP cells (NKX3.1 AR target gene) (AR [1]): 1
- B7 = Relative antagonist activity (plus 0.1 nM R1881) of test compounds (20 μM) in AR overexpressing LNCaP cells (PSA AR target gene) (AR [1]): 1
- B2 = % Toxicity of test compound (20 μM) (CV1 cells): 0%
- B3 = % Toxicity of test compound (60 μM) (CV1 cells): 0%
- IC50 (AR [2]): 5.3 µM

Structure (SMILES): CC1(C)CC(=O)C2=C(C1)Nc1ccc3ccccc3c1C2c1cccc(C(F)(F)F)c1 (centres unmarked) [Compound A9]
- B4 = Relative agonist activity (no R1881) of test compounds (20 μM) in AR overexpressing LNCaP cells (NKX3.1 AR target gene) (AR [1]): 1
- B6 Relative agonist activity (no R1881) of test compounds (20 μM) in AR overexpressing LNCaP cells (PSA AR target gene) (AR [1]): 1
- B5 = Relative antagonist activity (plus 0.1 nM R1881) of test compounds (20 μM) in AR overexpressing LNCaP cells (NKX3.1 AR target gene) (AR [1]): 1
- B7 = Relative antagonist activity (plus 0.1 nM R1881) of test compounds (20 μM) in AR overexpressing LNCaP cells (PSA AR target gene) (AR [1]): 1
- B2 = % Toxicity of test compound (20 μM) (CV1 cells): 0%
- B3 = % Toxicity of test compound (60 μM) (CV1 cells): 0%
- IC50 (AR [2]): 5.5 µM

Structure (SMILES): CNC(=O)c1ccc(N2C(=S)N(c3ccc(C#N)c(C(F)(F)F)c3)C(=O)C2(C)C)cc1F [Enzalutamide, enzalutamide, reference compound]
- agonist activity in AR overexpressing LNCaP cells (model of CRPC) (AR [1]; benchmark compounds, AR overexpressing LNCaP cells): does not possess agonist activity

Structure (SMILES): CC1(C)CC(=O)C2=C(C1)Nc1ccc3c(c1C2c1ccc(Br)s1)OCO3 (centres unmarked) [Compound A111]
- B9 = AR degradation in LNCaP cells (In-Cell Western) (AR [3]): Degrader (Compounds that degrade AR (greater than 50% degradation at 10 μM) are indicated)
- IC50 (AR [2]): 1.4 µM
